Tests used:
Format in all cases: cell-based
[1] = system: MOLM-13; experiment: CellTiter-Glo cell growth inhibition, MOLM-13; conditions: Homo sapiens, MOLM-13, 96 h, 4 days, Table 4, read-out: MOLM-13 IC50
Experimental: (§1) Cell growth inhibitory activity of representative Compounds of the Disclosure was determined using the CellTiter-Glo® Luminescent Cell Viability Assay. Cells were seeded in 384-well white opaque cell culture plates at a density of 2,000 cells/well with serially diluted compounds and incubated at 37° C. in an atmosphere of 95% air and 5% CO2 for 4 days. Cell viability was determined using the CellTiter-Glo® Luminescent Cell Viability Assay Kit (Promega, Madison, Wis.) according to the manufacture's instruction. Briefly, a volume of CellTiter-Glo® Reagent equal to the volume of cell culture medium was added to each well, and then the plates were incubated at room temperature for 10-20 minutes. The luminescent signal was measured using a Tecan Infinite M1000 multimode microplate reader (Tecan, Morrisville, N.C.). The half maximal inhibitory concentration (IC50) was calculated using the GraphPad Prism 5 software (GraphPad Software, La Jolla, Calif.).
(§2) Cpd. Nos. 18 and 19 were tested in various leukemia cell lines using the CellTiter-Glo® Luminescent Cell Viability Assay as described in Example 35.

[2] = system: MDA-MB-231; experiment: CellTiter-Glo cell growth inhibition, MDA-MB-231; conditions: Homo sapiens, MDA-MB-231, 96 h, 4 days, Table 4
Experimental: as §1

[3] = system: RS4;11; experiment: CellTiter-Glo cell growth inhibition, RS4;11; conditions: Homo sapiens, RS4-11, 96 h, 4 days, Table 4, read-out: RS-4, 11 IC50
Experimental: as §1, §2

For `Cc1nnc2n1-c1sc(C#Cc3cnn(CCNc4cccc5c4C(=O)N(C4CCC(=O)NC4=O)C5=O)c3)c(Cc3ccccc3)c1CO[C@H]2C` (stereo partly drawn) [Cpd. No. 6, 4-((2-(4-(((S)-3-benzyl-6,9-dimethyl-4H,6H-thieno[2,3-e][1,2,4]triazolo[3,4-c][1,4]oxazepin-2-yl)ethynyl)-1H-pyrazol-1-yl)ethyl)amino)-2-(2,6-dioxopiperidin-3-yl)isoindoline-1,3-dione], the IC50 [1] was 60 nM and the IC50 [2] was 64 nM.

`Cc1nnc2n1-c1sc(C#Cc3cnn(CCCC#Cc4cccc5c4C(=O)N(C4CCC(=O)NC4=O)C5=O)c3)c(Cc3ccccc3)c1COC2` (stereo not drawn) [Cpd. No. 49, 4-(5-(4-((3-benzyl-9-methyl-4H,6H-thieno[2,3-e][1,2,4]triazolo[3,4-c][1,4]oxazepin-2-yl)ethynyl)-1H-pyrazol-1-yl)pent-1-yn-1-yl)-2-(2,6-dioxopiperidin-3-yl)isoindoline-1,3-dione] showed an IC50 [1] of 9.6 nM, an IC50 [2] of 5.5 nM and an IC50 [3] of 0.56 nM.

For `Cc1nnc2n1-c1sc(C#Cc3cn(CCCC#Cc4cccc5c4C(=O)N(C4CCC(=O)NC4=O)C5=O)cn3)c(Cc3ccccc3)c1CO[C@H]2C` (stereo partly drawn) [compound 21, 4-(5-(4-(((S)-3-benzyl-6,9-dimethyl-4H,6H-thieno[2,3-e][1,2,4]triazolo[3,4-c][1,4]oxazepin-2-yl)ethynyl)-1H-imidazol-1-yl)pent-1-yn-1-yl)-2-(2,6-dioxopiperidin-3-yl)isoindoline-1,3-dione], the IC50 [1] was 15.7 nM, the IC50 [2] was 60 nM and the IC50 [3] was 3 nM.

`Cc1nnc2n1-c1sc(C#Cc3cn(CCCC#Cc4cccc5c4CN(C4CCC(=O)NC4=O)C5=O)cn3)c(Cc3ccccc3)c1COC2` (stereo not drawn) [Cpd. No. 50, 3-(4-(5-(4-((3-benzyl-9-methyl-4H,6H-thieno[2,3-e][1,2,4]triazolo[3,4-c][1,4]oxazepin-2-yl)ethynyl)-1H-imidazol-1-yl)pent-1-yn-1-yl)-1-oxoisoindolin-2-yl)piperidine-2,6-dione] was tested, and the IC50 [1] was over 10 nM, the IC50 [2] was over 100 nM and the IC50 [3] was over 1 nM.

In the case of `Cc1nnc2n1-c1sc(C#Cc3cn(CCCC#Cc4cccc5c4CN(C4CCC(=O)NC4=O)C5=O)cn3)c(Cc3ccccc3)c1CO[C@H]2C` (stereo partly drawn) [Cpd. No. 20, 3-(4-(5-(4-(((S)-3-benzyl-6,9-dimethyl-4H,6H-thieno[2,3-e][1,2,4]triazolo[3,4-c][1,4]oxazepin-2-yl)ethynyl)-1H-imidazol-1-yl)pent-1-yn-1-yl)-1-oxoisoindolin-2-yl)piperidine-2,6-dione], the IC50 [1] is reported as 3.8 nM, the IC50 [2] is reported as 16 nM and the IC50 [3] is reported as 0.7 nM.

In the case of `Cc1nnc2n1-c1sc(C#Cc3cnn(CCCC#Cc4cccc5c4C(=O)N(C4CCC(=O)NC4=O)C5=O)c3)c(Cc3ccccc3)c1CO[C@H]2C` (stereo partly drawn) [Cpd. No. 14, 4-(5-(4-(((S)-3-benzyl-6,9-dimethyl-4H,6H-thieno[2,3-e][1,2,4]triazolo[3,4-c][1,4]oxazepin-2-yl)ethynyl)-1H-pyrazol-1-yl)pent-1-yn-1-yl)-2-(2,6-dioxopiperidin-3-yl)isoindoline-1,3-dione], the IC50 [1] is reported as 8.7 nM, the IC50 [2] is reported as 9.3 nM and the IC50 [3] is reported as 0.43 nM.

Work on `Cc1nnc2n1-c1sc(C#CCOCCOCCOCCOCCNc3cccc4c3C(=O)N(C3CCC(=O)NC3=O)C4=O)c(Cc3ccccc3)c1CO[C@H]2C` (stereo partly drawn) [Cpd. No. 5, 4-((15-((S)-3-benzyl-6,9-dimethyl-4H,6H-thieno[2,3-e][1,2,4]triazolo[3,4-c][1,4]oxazepin-2-yl)-3,6,9,12-tetraoxapentadec-14-yn-1-yl)amino)-2-(2,6-dioxopiperidin-3-yl)isoindoline-1,3-dione] yielded an IC50 [1] of 0.7 nM and an IC50 [2] of 6.1 nM.

`Cc1nnc2n1-c1sc(C#Cc3cnn(CCCNc4cccc5c4C(=O)N(C4CCC(=O)NC4=O)C5=O)c3)c(Cc3ccccc3)c1CO[C@H]2C` (stereo partly drawn) [Cpd. No. 10, 4-((3-(4-(((S)-3-benzyl-6,9-dimethyl-4H,6H-thieno[2,3-e][1,2,4]triazolo[3,4-c][1,4]oxazepin-2-yl)ethynyl)-1H-pyrazol-1-yl)propyl)amino)-2-(2,6-dioxopiperidin-3-yl)isoindoline-1,3-dione] showed an IC50 [1] of 2.6 nM and an IC50 [2] of 34 nM.

Work on `Cc1nnc2n1-c1sc(C#Cc3ccc(CCCCNc4cccc5c4CN(C4CCC(=O)NC4=O)C5=O)nc3)c(Cc3ccccc3)c1COC2` (stereo not drawn) [Cpd. No. 46, 3-(4-((4-(5-((3-benzyl-9-methyl-4H,6H-thieno[2,3-e][1,2,4]triazolo[3,4-c][1,4]oxazepin-2-yl)ethynyl)pyridin-2-yl)butyl)amino)-1-oxoisoindolin-2-yl) piperidine-2,6-dione] yielded an IC50 [1] of 2.8 nM, an IC50 [2] of 2.4 nM and an IC50 [3] of under 0.1 nM.

`Cc1nnc2n1-c1sc(C#Cc3cn(CCCCNc4cccc5c4CN(C4CCC(=O)NC4=O)C5=O)cn3)c(Cc3ccccc3)c1CO[C@H]2C` (stereo partly drawn) [Cpd. No. 13, 3-(4-((4-(4-(((S)-3-benzyl-6,9-dimethyl-4H,6H-thieno[2,3-e][1,2,4]triazolo[3,4-c][1,4]oxazepin-2-yl)ethynyl)-1H-imidazol-1-yl)butyl)amino)-1-oxoisoindolin-2-yl)piperidine-2,6-dione] showed an IC50 [1] of 20 nM, an IC50 [2] of 58 nM and an IC50 [3] of 1.8 nM.

For `Cc1nnc2n1-c1sc(C#CCOCCOCCOc3cccc4c3C(=O)N(C3CCC(=O)NC3=O)C4=O)c(Cc3ccccc3)c1CO[C@H]2C` (stereo partly drawn) [Cpd. No. 2, 4-(2-(2-((3-((S)-3-benzyl-6,9-dimethyl-4H,6H-thieno-[2,3-e][1,2,4]triazolo[3,4-c][1,4]oxazepin-2-yl)prop-2-yn-1-yl)oxy)ethoxy)ethoxy)-2-(2,6-dioxopiperidin-3-yl)isoindoline-1,3-dione], the IC50 [1] was 34.6 nM and the IC50 [2] was 223 nM.

`Cc1nnc2n1-c1sc(C#Cc3cnn(CCCCOc4cccc5c4C(=O)N(C4CCC(=O)NC4=O)C5=O)c3)c(Cc3ccccc3)c1COC2` (stereo not drawn) [Cpd. No. 45, 4-(4-(4-((3-benzyl-9-methyl-4H,6H-thieno[2,3-e][1,2,4]triazolo[3,4-c][1,4]oxazepin-2-yl)ethynyl)-1H-pyrazol-1-yl)butoxy)-2-(2,6-dioxopiperidin-3-yl) isoindoline-1,3-dione] showed an IC50 [1] of 3.2 nM, an IC50 [2] of 3.2 nM and an IC50 [3] of under 0.1 nM.

`Cc1nnc2n1-c1sc(C#Cc3ccc(CCCCNc4cc(F)cc5c4CN(C4CCC(=O)NC4=O)C5=O)nc3)c(Cc3ccccc3)c1COC2` (stereo not drawn) [Cpd. No. 47, 3-(4-((4-(5-((3-benzyl-9-methyl-4H,6H-thieno[2,3-e][1,2,4]triazolo[3,4-c][1,4]oxazepin-2-yl)ethynyl)pyridin-2-yl)butyl)amino)-6-fluoro-1-oxoisoindolin-2-yl)piperidine-2,6-dione] showed an IC50 [1] of 1.8 nM, an IC50 [2] of 2.3 nM and an IC50 [3] of under 0.1 nM.

For `Cc1nnc2n1-c1sc(C#Cc3cnc(CCCC#Cc4cccc5c4CN(C4CCC(=O)NC4=O)C5=O)n3C)c(Cc3ccccc3)c1CO[C@H]2C` (stereo partly drawn) [Cpd. No. 15, 3-(4-(5-(5-(((S)-3-benzyl-6,9-dimethyl-4H,6H-thieno[2,3-e][1,2,4]triazolo[3,4-c][1,4]oxazepin-2-yl)ethynyl)-1-methyl-1H-imidazol-2-yl)pent-1-yn-1-yl)-1-oxoisoindolin-2-yl)piperidine-2,6-dione], the IC50 [1] was 7.5 nM, the IC50 [2] was 25 nM and the IC50 [3] was 0.2 nM.

Compound `Cc1nnc2n1-c1sc(C#Cc3ccc(CNc4cccc5c4C(=O)N(C4CCC(=O)NC4=O)C5=O)nc3)c(Cc3ccccc3)c1CO[C@H]2C` (stereo partly drawn) [Cpd. No. 8, 4-(((5-(((S)-3-benzyl-6,9-dimethyl-4H,6H-thieno[2,3-e][1,2,4]triazolo[3,4-c][1,4]oxazepin-2-yl)ethynyl)pyridin-2-yl)methyl)amino)-2-(2,6-dioxopiperidin-3-yl) isoindoline-1,3-dione] has an IC50 [1] of 118 nM and an IC50 [2] of 1490 nM.

`Cc1nnc2n1-c1sc(C#Cc3cnn(CCOCCNc4cccc5c4C(=O)N(C4CCC(=O)NC4=O)C5=O)c3)c(Cc3ccccc3)c1CO[C@H]2C` (stereo partly drawn) [Cpd. No. 9, 4-((2-(2-(4-(((S)-3-benzyl-6,9-dimethyl-4H,6H-thieno[2,3-e][1,2,4]triazolo[3,4-c][1,4]oxazepin-2-yl)ethynyl)-1H-pyrazol-1-yl)ethoxy)ethyl)amino)-2-(2,6-dioxopiperidin-3-yl)isoindoline-1,3-dione] gave an IC50 [1] of 1.1 nM and an IC50 [2] of 4.7 nM.

`Cc1nnc2n1-c1sc(C#CCOCCOCCOCCNc3cccc4c3C(=O)N(C3CCC(=O)NC3=O)C4=O)c(Cc3ccccc3)c1CO[C@H]2C` (stereo partly drawn) [Cpd. No. 4, 4-((2-(2-(2-((3-((S)-3-benzyl-6,9-dimethyl-4H,6H-thieno[2,3-e][1,2,4]triazolo[3,4-c][1,4]oxazepin-2-yl)prop-2-yn-1-yl)oxy)ethoxy)ethoxy)ethyl)amino)-2-(2,6-dioxopiperidin-3-yl)isoindoline-1,3-dione] showed an IC50 [1] of 0.8 nM and an IC50 [2] of 12.8 nM.

`Cc1nnc2n1-c1sc(C#CCOCCOCCNc3cccc4c3C(=O)N(C3CCC(=O)NC3=O)C4=O)c(Cc3ccccc3)c1CO[C@H]2C` (stereo partly drawn) [Cpd. No. 3, 4-((2-(2-((3-((S)-3-benzyl-6,9-dimethyl-4H,6H-thieno[2,3-e][1,2,4]triazolo[3,4-c][1,4]oxazepin-2-yl)prop-2-yn-1-yl)oxy)ethoxy)ethyl)amino)-2-(2,6-dioxopiperidin-3-yl)isoindoline-1,3-dione] was tested, and the IC50 [1] was 2.6 nM and the IC50 [2] was 49 nM.

For `Cc1nnc2n1-c1sc(C#CCOCCNc3cccc4c3C(=O)N(C3CCC(=O)NC3=O)C4=O)c(Cc3ccccc3)c1CO[C@H]2C` (stereo partly drawn) [Cpd. No. 1, 4-((2-((3-((S)-3-benzyl-6,9-dimethyl-4H,6H-thieno[2,3-e][1,2,4]triazolo[3,4-c][1,4]oxazepin-2-yl)prop-2-yn-1-yl)oxy)ethyl)amino)-2-(2,6-dioxopiperidin-3-yl) isoindoline-1,3-dione], the IC50 [1] was 804 nM and the IC50 [2] was 1700 nM.
